We go through 7 compounds from patent US9855257B2, “4-alkynyl imidazole derivative and medicine comprising same as active ingredient” (KAKEN PHARMACEUTICAL CO., LTD., priority 2013, dated 2018).

One may read the IC50 as the point on the concentration scale where inhibition reaches its midpoint.

Test [1] deals with Carrageenin Induced Paw Edema in Rats. Put plainly: Anti-inflammatory effect on carrageenin induced paw edema in rats. It is filed as in vivo, rat. The settings on record: for Percent paw edema suppression: Wistar male rats, oral 10 mg/5 mL/kg one hour before carrageenin, paw volume four hours after treatment, means of 5˜8 cases. The procedure: Test for Evaluating the Anti-Inflammatory Effect on Carrageenin Induced Paw Edema in Rats
The animals were Wistar male rats (7-week old). The paw volume of the right hind leg was measured with a paw volume meter (PLETHYSMOMETER, Ugo Basile Model 7141 or 7150). One hour after orally administering a test compound at a dose of 10 mg/5 mL/kg, a carrageenin treatment group was given a 1 w/v % carrageenin solution and a non-treatment group given distilled water, each administered subcutaneously to the footpad of the right hind leg at a dose of 0.1 mL. Four hours after the treatment with carrageenin (or distilled water), the paw volume was measured and the change in paw volume from the pre-treatment value was calculated. The anti-inflammatory effect of the test compound was confirmed using the percent paw edema suppression (see below) as an indicator. In the present experimental models, Cerecoxib (COX inhibitor already available on the market as an anti-inflammatory/analgesic agent) was used as a positive control.
A general note: The carrageenan paw model is a standard test of acute inflammation.

Test [2] concerns Adjuvant Induced Arthritis in Rats. The test is described as follows: Anti-inflammatory and analgesic effects on adjuvant induced arthritis in rats. It is filed as in vivo, rat. Also on record: Percent Effectiveness: scale not given: direction of the effect not stated beside the values. The settings on record: Lewis male rats, oral 0.3 mg/kg once a day, day 9 to day 17 after adjuvant; for Percent paw edema suppression: measured at day 18, means of 8˜10 cases; for Percent Effectiveness: pain threshold at day 18, 8˜10 cases. The procedure:
Test for Evaluating Anti-Inflammatory and Analgesic Effects on Adjuvant Induced Arthritis in Rats
The animals were Lewis male rats (6-week old). An adjuvant solution (2 mg/mL) was administered intradermally to the footpad of the left hind leg of each animal at a dose of 0.1 mL to create an arthritis model. Paw volume was measured with a paw volume meter (PLETHYSMOMETER, Ugo Basile Model 7141). For evaluation of pain thresholds, a probe fitted to the sensor site of Pressure Application Measurement (PAM, Ugo Basile Model 38500) was used to turn the foot sole of a rat upward (dorsiflexion) until it gave an indication of pain or discomfort (vocalization) and the load being applied was measured. Eight days after the treatment with the adjuvant, the paw volume and pain threshold of each treated foot were measured and the animals were grouped for oral administration of each test compound (0.3 mg/kg) which was performed for nine days on a once-a-day schedule starting at day 9 and ending at day 17 after the treatment. At day 18 after the treatment, the paw volume and pain threshold of each […] foot were measured.
The anti-inflammatory effect of the test compound was confirmed using the percent paw edema suppression as an indicator. Percent paw edema suppression (%)=[(paw volume change in the control group−paw volume in each treatment group)/(paw volume change in the control group−paw volume change in the non-treatment group)]×100
As for the analgesic effect, the animals in the test compound group that had nociceptive thresholds greater than [(the mean nociceptive threshold of the control group)+2×standard deviation] were found “effective animals” and the percent effectiveness of each compound was calculated.

Test [3] concerns Carrageenin Induced Hyperalgesia in Rats. Put plainly: Analgesic effect on carrageenin induced hyperalgesia in rats. It is filed as in vivo. The settings on record: Rattus norvegicus, 2 h; SD male rats, oral 10 mg/5 mL/kg six hours after carrageenin, nociceptive threshold (Randall-Selitto) two hours after administration; 5˜7 cases; read-out: Percent Effectiveness. How it is done: Test for Evaluating Analgesic Effect on Carrageenin Induced Hyperalgesia in Rats
The animals were SD male rats (5-week old). Before treatment with carrageenin (or distilled water), the rats were measured for nociceptive thresholds in their right hind leg by the Randall-Selitto method and divided into a carrageenin treatment group and a non-treatment group to provide uniformity in nociceptive threshold. The carrageenin treatment group was given a 1 w/v % carrageenin solution and the non-treatment group given distilled water, each administered subcutaneously to the footpad of the right hind leg at a dose of 0.1 mL. Five hours after the treatment, the nociceptive thresholds were measured and the individuals with decreased thresholds were selected and grouped such that there was no inter-group difference in threshold. Six hours after the treatment, each test compound was orally administered at a dose of 10 mg/5 mL/kg. The control group was administered 0.5% methylcellulose. Two hours after the administration of the test compound (8 hours after the treatment), the nociceptive threshold was measured. The animals in the test compound group that had nociceptive thresholds greater than [(the mean nociceptive threshold of the control group)+2×standard deviation] were found “effective animals” and the percent effectiveness of each compound was calculated.

For test [4], the system named is Monoiodoacetic Acid Induced Joint Pain in Rats. The test is described as follows: Analgesic effect on monoiodoacetic acid induced joint pain in rats. It is filed as in vivo, rat. The settings on record: SD male rats, oral 10 mg/kg three days after MIA treatment, measured two hours later with incapacitance tester. How it is done:
Test for Evaluating Analgesic Effect on Monoiodoacetic Acid Induced Joint Pain in Rats
The animals were SD male rats (6 week-old). The right knee of each animal was treated intraarticularly with monoiodoacetic acid (MIA) to induce joint pain. Three days after the MIA treatment, a test compound (10 mg/kg) was administered orally and two hours later, the loads on the right and left hind legs were measured with an incapacitance tester (Linton).

A further test has as its target T1, rat EP4 receptor (Rattus norvegicus, UniProt P43114).
T1 construct: its translated region was integrated into the expression vector pShooter (Invitrogen); expressed in transfected cells; host or cells: COS-7 cells (Cercopithecus aethiops kidney), transiently co-transfected with ratEP4-pShooter and a CRE-LUC reporter vector
The test is described as follows: Rat EP4 receptor antagonistic action by the reporter assay method. It is filed as cell-based. The settings on record: COS-7 cells expressing rat EP4 receptor, CRE-LUC reporter, PGE2 1×10^−8 mol/L; geometric mean of three cases; read-out: Intensity of EP4 Receptor Antagonistic Activity IC50. The procedure: Test for Evaluating the Rat EP4 Receptor Antagonistic Action by the Reporter Assay Method
The first step was the cloning of the rat EP4 receptor. Total RNA was prepared from the kidney extracted from rats. With the total RNA used as a template, the rat EP4 receptor gene was cloned by RT-PCR and its translated region was integrated into the expression vector pShooter (Invitrogen) to prepare a rat EP4 receptor expressing vector (ratEP4-pShooter).
In the next step, rat EP4 receptor expressing cells for use in the reporter assay were prepared. COS-7 cells (derived from the kidney of Cercopithecus aethiops) were cultured in Dulbecco's Modified Eagle Medium (DMEM) (supplemented with 10% fetal bovine serum) in a 75-cm^2 cell culture flask. After the cells proliferated to a subconfluent state, the medium was removed and rinsed with phosphate buffered physiological saline (PBS). Trypsin-EDTA and a growth medium were used to recover the cells, which were then centrifuged. The supernatant was removed and the cells were suspended in DMEM. The cell suspension was seeded on a 96-well plate at a density of 2×10^4 cells/100 μL/well and cultured. The DMEM was mixed with Plus reagent, Lipofectamine 2000, the rat EP4 receptor expressing vector (ratEP4-pShooter) and a CRE-LUC reporter vector (CLONTECH) to prepare a transfection solution. Three hours after the seeding of the cells, 50 μL of the medium was removed and 50 μL/well of the transfection solution was added, followed by culture overnight. Negative control cells were prepared using pShooter in place of the receptor expressing vector. The cells were seeded on a 96-well plate for reporter assay and cultured.
The medium on the 96-well plate was removed and a test compound was added in an amount of 50 μL/well. After ca. 30-min culture, a PGE2 solution (2×10^−8 mol/L) was added in an amount of 50 μL/well (final concentration of PGE2: 1×10^−8 mol/L). As a PGE2-free control, there were provided wells to which a test medium had been added in an amount of 50 μL/well. About three hours later, the medium was removed and reporter assay was performed in accordance with the protocol accompanying the Steady-Glo Luciferase Assay System kit. Luminous intensity was measured with a microplate reader (Fusion-FPα, PerkinElmer) and EP4 receptor antagonistic activity (%) was determined by the following calculation formula: EP4 receptor antagonistic activity (%)=[1−(RLU(A,X)−RLU(0))/(RLU(PGE2)−RLU(0))]×100 RLU(A,X): Luminous intensity expressed in relative luminescence units (RLU) for the case where the test compound (A) X (mol/L) and PGE2 10^−8 mol/L were both added; RLU(PGE2): Luminous intensity for the case where only PGE2 10^−8 mol/L was added; RLU(0): Luminous intensity for the case where neither test compound nor PGE2 was added.
In addition, a dose-response curve was plotted from the EP4 receptor antagonistic activities at varying concentrations of each test compound and using the following approximation formula, the IC50 (the concentration of the test compound required to inhibit the PGE2 inducing activity by 50%) was calculated to determine the intensity of the compound's EP4 receptor antagonistic activity. The results are shown in Table 2: Y=Bottom+(Top−Bottom)/{1+10^(Log IC50−Log X)} Bottom: 0 Top: 100 X: Concentration of the test compound (mol/L) Y: EP4 receptor antagonistic activity (%)
(A reporter such as luciferase makes a cellular process visible.)

T1 sequence (P43114 whole entry): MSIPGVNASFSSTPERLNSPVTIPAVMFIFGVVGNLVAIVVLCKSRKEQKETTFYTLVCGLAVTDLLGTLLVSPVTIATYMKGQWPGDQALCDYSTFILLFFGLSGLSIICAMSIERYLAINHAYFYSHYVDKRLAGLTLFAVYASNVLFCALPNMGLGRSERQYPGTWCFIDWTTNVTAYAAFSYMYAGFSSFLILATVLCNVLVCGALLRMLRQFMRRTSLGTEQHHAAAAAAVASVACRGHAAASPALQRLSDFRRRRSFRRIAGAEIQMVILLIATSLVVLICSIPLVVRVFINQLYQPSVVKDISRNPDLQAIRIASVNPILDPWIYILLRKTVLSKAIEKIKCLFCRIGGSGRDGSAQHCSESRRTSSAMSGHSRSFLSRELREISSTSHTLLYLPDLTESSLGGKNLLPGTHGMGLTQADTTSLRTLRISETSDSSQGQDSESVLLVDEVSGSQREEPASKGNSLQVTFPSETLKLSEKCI

For the compound `Cc1ccc(-c2cc(C(F)(F)F)nn2-c2ccc(S(N)(=O)=O)cc2)cc1` [Cerecoxib, reference compound], the “Percent paw edema suppression at the maximum efficacy” value in test [1] (positive control, maximum efficacy at doses of 10˜30 mg/kg) was 32˜37%.
`COC(C)(C)C#Cc1nc(Cl)n(Cc2ccc(C(F)(F)F)cc2)c1C(=O)NC[C@H]1CC[C@H](C(=O)O)CC1` [Compound 10, trans-4-({2-Chloro-4-(3-methoxy-3-methyl-1-butyn-1-yl)-1-[4-(trifluormethyl)benzyl]-1H-imidazole-5-carboxamido}methyl)cyclohexanecarboxylic acid]: in test [1], the “Percent paw edema suppression” value was 26%. In test [2], the “Percent paw edema suppression” value is 82% and the “Percent Effectiveness” value turned out to be 78%. Further, the responders at 10 mg/kg in test [3] was determined as 100%. Moreover, the “suppression of right knee joint pain (ratio between the loads on the right and left hind legs)” value in test [4] is recorded as “suppression of right knee joint pain was confirmed”. Moreover, the IC50 on rat EP4 receptor came out at 10.9 nM.
For the compound `COC(C)(C)C#Cc1nc(Cl)n(Cc2ccc(C)cc2)c1C(=O)NC[C@H]1CC[C@H](C(=O)O)CC1` [Compound 22, trans-4-{[2-Chloro-4-(3-methoxy-3-methyl-1-butyn-1-yl)-1-(4-methylbenzyl)-1H-imidazole-5-carboxamido]methyl}cyclohexanecarboxylic acid], the results for the “Percent paw edema suppression” value in test [1] and in test [2] were 19% and 90%, respectively. In test [2], the “Percent Effectiveness” value is listed as 60%. In addition, in test [3], the responders at 10 mg/kg was found to be 83%. Besides, the “suppression of right knee joint pain (ratio between the loads on the right and left hind legs)” value in test [4] is listed as “suppression of right knee joint pain was confirmed”. On rat EP4 receptor, the IC50 stood at 11.8 nM.
Take `CC(C)(O)C#Cc1nc(Cl)n(CCOc2ccc(Cl)cc2)c1C(=O)NCC1CCC(C(=O)O)CC1` (stereo not shown) [Compound 39]: in test [1], the “Percent paw edema suppression” value is on record as 22%. Besides, the responders at 10 mg/kg in test [3] worked out at 100%. The concentration for half-maximal inhibition (IC50) on rat EP4 receptor was determined as 35 nM.
For the compound `COC(C)(C)C#Cc1nc(Cl)n(CCOc2ccc(Cl)cc2)c1C(=O)NCC1CCC(C(=O)O)CC1` (stereo not shown) [Compound 40], in test [1], the “Percent paw edema suppression” value worked out at 29%. In test [3], the responders at 10 mg/kg came out at 100%. Further, the IC50 at rat EP4 receptor worked out at 9.5 nM.
`COC(C)(C)C#Cc1nc(Cl)n(Cc2ccc(C(F)(F)F)cc2)c1C(=O)NC1(c2ccc(C(=O)O)cc2)CC1` [Compound 42, 4-(1-{2-Chloro-4-(3-methoxy-3-methyl-1-butyn-1-yl)-1-[4-(trifluoromethyl)benzyl]-1H-imidazole-5-carboxamido}cyclopropyl)benzoic acid]: the “Percent paw edema suppression” value in test [1] was 28%. Further, in test [2], the “Percent paw edema suppression” value is 88% and the “Percent Effectiveness” value stood at 90%. Besides, the responders at 10 mg/kg in test [3] worked out at 83%. Further, the “suppression of right knee joint pain (ratio between the loads on the right and left hind legs)” value in test [4] was “suppression of right knee joint pain was confirmed”. Also, on rat EP4 receptor, the IC50 is 1.7 nM.
For the compound `COC(C)(C)C#Cc1nc(C2CC2)n(CCOc2ccc(Cl)cc2)c1C(=O)NCc1ccc(C(=O)O)cc1` [Compound 47, 4-({1-[2-(4-Chlorophenoxy)ethyl]-2-cyclopropyl-4-(3-methoxy-3-methyl-1-butyn-1-yl)-1H-imidazole-5-carboxamido}methyl)benzoic acid], the “Percent paw edema suppression” value in test [1] is on record as 26%. Also, the responders at 10 mg/kg in test [3] came to 67%. Also, the half-inhibitory concentration (IC50) on rat EP4 receptor was found to be 34.7 nM.
